≈ marks a conversion by molar mass, not a printed value. Calls of active or inactive are those of the source. The rule behind the calls is not given here.
Columns and labels:
NCI-H441 [1] = experiment: Inhibition of ERK1/2 phosphorylation in human NCI-H441 cells harboring KRAS G12V mutant incubated for 4 hrs by AlphaLISA assay; assay type: cell-based
MIA PaCa-2 [2] = experiment: Antitumor activity against human MIA PaCa-2 cells harboring KRAS G12C/G12C mutant xenografted in female BALB/c mouse model assessed as tumor regression at 25 mg/kg, po administered once daily for 28 days; assay type: functional, organism-based; conditions: time 28.0 day
[3] = Efflux ratio of apparent permeability in human Caco-2 cells at 5 uM incubated for 2 hrs by LC-MS/MS analysis; assay type: ADME, cell-based
[4] = Oral bioavailability in female BALB/c mouse blood at 10 mg/kg measured after 24 hrs by LC-MS/MS analysis; assay type: ADME, organism-based
[5] = Tmax in male Beagle dog at 5 mg/kg, po measured after 24 hrs by LC-MS/MS analysis; assay type: ADME, organism-based, Canis lupus familiaris; conditions: in vivo
[6] = molecular target: Sodium channel protein type 5 subunit alpha (Homo sapiens, UniProt Q14524); experiment: Inhibition of human Nav1.5; assay type: toxicity
NCI-H441 [7] = experiment: Antitumor activity against human NCI-H441 cells harboring wildtype KRAS/KRAS G12V mutant xenografted in female BALB/c nude mouse assessed as tumor regression at 25 mg/kg, po administered once daily for 28 days; assay type: functional, organism-based; conditions: time 28.0 day
NCI-H1975 [8] = experiment: Cytotoxicity against human NCI-H1975 cells harboring wildtype KRAS cultured as 2D cells assessed as reduction in cell viability incubated for 120 hrs by CellTiter-Glo luminescence assay; assay type: functional, cell-based; conditions: NCI-H1975, 120 h
[9] = molecular target: Voltage-gated inwardly rectifying potassium channel KCNH2 (Homo sapiens, UniProt Q12809); experiment: Inhibition of human ERG; assay type: toxicity
[10] = Half-life in female BALB/c mouse at 10 mg/kg, po measured after 24 hrs by LC-MS/MS analysis; assay type: ADME, organism-based; conditions: in vivo
[11] = Tmax in male cynomolgus monkey at 10 mg/kg, po measured after 24 hrs by LC-MS/MS analysis; assay type: ADME, organism-based, Macaca fascicularis; conditions: in vivo
A-375 = experiment: Cytotoxicity against human A-375 cells assessed as reduction in cell viability incubated for 120 hrs by CellTiter-Glo luminescence assay; assay type: functional, cell-based; conditions: A-375, 120 h
[12] = Toxicity in human PBL cells in absence of rat S9 fraction by micronucleus assay; assay type: cell-based
[13] = Kinetic solubility of compound in PBS at pH 5.0 measured after 5 hrs by UV analysis; assay type: physicochemical; conditions: read-out: Kinetic_solubility
MIA PaCa-2 [14] = experiment: Antitumor activity against human MIA PaCa-2 cells harboring KRAS G12C/G12C mutant xenografted in female BALB/c mouse model assessed as reduction in tumor volume administered orally as once daily dose for 28 days; assay type: functional, cell-based; conditions: dose 3-25 mg/kg, route po, time 28.0 day
[15] = Inhibition of ERK1/2 phosphorylation in human NCI-H358 cells harboring KRAS G12C mutant incubated for 4 hrs by AlphaLISA assay; assay type: cell-based; conditions: NCI-H358, 4 h
[16] = Kinetic solubility of compound in PBS at pH 7.4 measured after 5 hrs by UV analysis; assay type: physicochemical; conditions: read-out: Kinetic_solubility
[17] = Volume of distribution at steady state in male Beagle dog at 1 mg/kg, iv measured after 24 hrs by LC-MS/MS analysis; assay type: ADME, organism-based, Canis lupus familiaris; conditions: in vivo, read-out: Vdss
[18] = Inhibition of 6His-tagged KRAS G12V mutant(1 to 169 residues)/GST-tagged GMPPNP-bound BRAF RBD (155 to 229 reisudes)/Cyclophilin A (unknown origin) tri-complex protein-protein interaction incubated for 3 hrs by TR-FERT based disruption assay; design: species or system Homo sapiens
[19] = In vivo inhibition of MAPK signaling pathway in female BALB/c nude mouse xenografted with human MIA PaCa-2 cells harboring KRAS G12C/G12C mutant assessed as reduction in DUSP6 mRNA level in tumor at 25 mg/kg, po administered as single dose and measured after 8 hrs by qPCR analysis relative to control; assay type: functional
[20] = Clearance in male Beagle dog at 1 mg/kg, iv measured after 24 hrs by LC-MS/MS analysis; assay type: ADME, organism-based, Canis lupus familiaris; conditions: in vivo
CAPAN-1 = experiment: Cytotoxicity against human CAPAN-1 cells harboring KRAS G12V mutant cultured as 2D cells assessed as reduction in cell viability incubated for 120 hrs by CellTiter-Glo luminescence assay; assay type: functional, cell-based; conditions: CAPAN-1, 120 h
[21] = Oral bioavailability in male cynomolgus monkey at 10 mg/kg measured after 24 hrs by LC-MS/MS analysis; assay type: ADME, organism-based, Macaca fascicularis; conditions: in vivo
NCI-H1975 [22] = experiment: Inhibition of ERK1/2 phosphorylation in human NCI-H1975 cells harboring wildtype KRAS incubated for 4 hrs by AlphaLISA assay; assay type: cell-based
[23] = Half-life in male Beagle dog at 1 mg/kg, iv measured after 24 hrs by LC-MS/MS analysis; assay type: ADME, organism-based, Canis lupus familiaris; conditions: in vivo
PSN1 = experiment: Inhibition of ERK1/2 phosphorylation in human PSN1 cells harboring KRAS G12R mutant incubated for 4 hrs by AlphaLISA assay; assay type: cell-based
[24] = Ratio of drug concentration in mouse blood to plasma at 10 uM measured upto 120 mins by LC-MS/MS analysis; assay type: ADME, cell-free
[25] = Apparent permeability across apical to basolateral side in human Caco-2 cells at 5 uM incubated for 2 hrs by LC-MS/MS analysis; assay type: ADME, cell-based
[26] = Ratio of drug concentration in mouse blood to plasma at 0.1 uM measured upto 120 mins by LC-MS/MS analysis; assay type: ADME, cell-free
NCI-H1373 = experiment: Antitumor activity against human NCI-H1373 cells harboring KRAS G12C/KRAS G12C mutant xenografted in female BALB/c nude mouse assessed as tumor regression at 25 mg/kg, po administered once daily for 28 days; assay type: functional, organism-based; conditions: time 28.0 day
[27] = Inhibition of 6His-tagged KRAS G12D mutant(1 to 169 residues)/GST-tagged GMPPNP-bound BRAF RBD (155 to 229 reisudes)/Cyclophilin A (unknown origin) tri-complex protein-protein interaction incubated for 3 hrs by TR-FERT based disruption assay; design: species or system Homo sapiens
Hs766T = experiment: Inhibition of ERK1/2 phosphorylation in human Hs766T cells harboring […] mutant incubated for 4 hrs by AlphaLISA assay; assay type: cell-based
[28] = Volume of distribution at steady state in male cynomolgus monkey at 1 mg/kg, iv measured after 24 hrs by LC-MS/MS analysis; assay type: ADME, organism-based, Macaca fascicularis; conditions: in vivo, read-out: Vdss
ASPC1 = experiment: Cytotoxicity against human ASPC1 cells harboring KRAS G12D mutant cultured as 2D cells assessed as reduction in cell viability incubated for 120 hrs by CellTiter-Glo luminescence assay; assay type: functional, cell-based; conditions: ASPC1, 120 h
HPAF-II = experiment: Antitumor activity against human HPAF-II cells harboring wildtype KRAS/KRAS G12D mutant xenografted in female BALB/c mouse model assessed as tumor regression at 25 mg/kg, po administered once daily for 28 days; assay type: functional, organism-based; conditions: time 28.0 day
Hs 766 = experiment: Cytotoxicity against human Hs766T cells harboring KRAS Q61H mutant cultured as 2D cells assessed as inhibition of cell proliferation incubated for 120 hrs by CellTiter-Glo luminescence assay; assay type: functional, cell-based
[29] = Volume of distribution at steady state in female BALB/c mouse at 1 mg/kg, iv measured after 24 hrs by LC-MS/MS analysis; assay type: ADME, organism-based; conditions: in vivo, read-out: Vdss
[30] = Half-life in male cynomolgus monkey at 10 mg/kg, po measured after 24 hrs by LC-MS/MS analysis; assay type: ADME, organism-based, Macaca fascicularis; conditions: in vivo

Chain of Sodium channel protein type 5 subunit alpha (Q14524 whole entry): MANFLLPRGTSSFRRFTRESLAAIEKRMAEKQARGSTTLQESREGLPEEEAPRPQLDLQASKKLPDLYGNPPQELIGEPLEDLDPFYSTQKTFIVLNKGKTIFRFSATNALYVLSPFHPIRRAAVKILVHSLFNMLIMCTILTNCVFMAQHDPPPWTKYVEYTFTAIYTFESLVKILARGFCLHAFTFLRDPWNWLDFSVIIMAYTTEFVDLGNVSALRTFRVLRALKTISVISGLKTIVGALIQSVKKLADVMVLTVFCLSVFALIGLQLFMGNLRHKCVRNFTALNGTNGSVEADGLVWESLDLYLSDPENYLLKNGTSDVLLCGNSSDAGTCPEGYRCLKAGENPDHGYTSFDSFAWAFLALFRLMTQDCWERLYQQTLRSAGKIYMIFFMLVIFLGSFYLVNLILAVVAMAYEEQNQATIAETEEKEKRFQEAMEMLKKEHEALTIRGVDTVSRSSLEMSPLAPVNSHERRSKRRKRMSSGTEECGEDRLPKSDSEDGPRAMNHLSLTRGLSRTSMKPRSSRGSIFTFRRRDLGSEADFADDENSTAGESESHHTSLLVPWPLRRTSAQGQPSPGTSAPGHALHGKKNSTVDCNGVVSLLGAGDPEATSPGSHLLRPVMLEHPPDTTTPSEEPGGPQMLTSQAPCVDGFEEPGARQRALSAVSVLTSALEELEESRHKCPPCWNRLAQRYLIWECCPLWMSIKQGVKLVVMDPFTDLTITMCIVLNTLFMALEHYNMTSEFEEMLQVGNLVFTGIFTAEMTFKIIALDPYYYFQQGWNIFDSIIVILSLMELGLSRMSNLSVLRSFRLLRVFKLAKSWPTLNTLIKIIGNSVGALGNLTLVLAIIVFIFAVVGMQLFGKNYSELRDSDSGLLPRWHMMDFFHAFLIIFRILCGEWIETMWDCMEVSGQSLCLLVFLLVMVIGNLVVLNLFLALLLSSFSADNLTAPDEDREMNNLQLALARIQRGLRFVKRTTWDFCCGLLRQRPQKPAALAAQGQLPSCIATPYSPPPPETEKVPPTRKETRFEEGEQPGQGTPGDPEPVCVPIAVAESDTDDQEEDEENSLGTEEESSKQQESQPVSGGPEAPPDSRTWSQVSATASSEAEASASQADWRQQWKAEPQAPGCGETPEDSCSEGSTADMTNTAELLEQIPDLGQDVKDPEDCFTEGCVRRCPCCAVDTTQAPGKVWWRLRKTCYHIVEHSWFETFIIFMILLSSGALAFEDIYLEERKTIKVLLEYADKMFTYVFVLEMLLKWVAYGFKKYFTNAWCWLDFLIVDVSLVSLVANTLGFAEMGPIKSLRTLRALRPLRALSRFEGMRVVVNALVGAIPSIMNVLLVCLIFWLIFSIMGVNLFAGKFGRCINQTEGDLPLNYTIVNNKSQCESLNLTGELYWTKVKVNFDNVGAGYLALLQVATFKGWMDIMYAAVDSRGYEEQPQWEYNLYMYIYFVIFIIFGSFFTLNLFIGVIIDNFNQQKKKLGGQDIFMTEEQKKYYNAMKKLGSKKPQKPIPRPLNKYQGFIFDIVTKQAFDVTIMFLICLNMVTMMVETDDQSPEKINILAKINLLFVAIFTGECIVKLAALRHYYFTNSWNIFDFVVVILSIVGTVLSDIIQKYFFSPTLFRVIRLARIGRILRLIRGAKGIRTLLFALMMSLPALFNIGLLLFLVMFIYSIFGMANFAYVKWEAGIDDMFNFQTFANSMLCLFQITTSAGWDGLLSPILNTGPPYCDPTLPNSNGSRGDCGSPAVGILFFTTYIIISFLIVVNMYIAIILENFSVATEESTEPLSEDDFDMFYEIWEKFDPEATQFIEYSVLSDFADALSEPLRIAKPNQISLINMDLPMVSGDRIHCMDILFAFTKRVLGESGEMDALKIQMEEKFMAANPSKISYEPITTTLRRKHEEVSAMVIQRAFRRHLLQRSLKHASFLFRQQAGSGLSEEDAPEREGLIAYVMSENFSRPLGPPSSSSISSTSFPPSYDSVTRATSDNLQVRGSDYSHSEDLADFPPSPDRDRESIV
Chain of Voltage-gated inwardly rectifying potassium channel KCNH2 (Q12809 whole entry): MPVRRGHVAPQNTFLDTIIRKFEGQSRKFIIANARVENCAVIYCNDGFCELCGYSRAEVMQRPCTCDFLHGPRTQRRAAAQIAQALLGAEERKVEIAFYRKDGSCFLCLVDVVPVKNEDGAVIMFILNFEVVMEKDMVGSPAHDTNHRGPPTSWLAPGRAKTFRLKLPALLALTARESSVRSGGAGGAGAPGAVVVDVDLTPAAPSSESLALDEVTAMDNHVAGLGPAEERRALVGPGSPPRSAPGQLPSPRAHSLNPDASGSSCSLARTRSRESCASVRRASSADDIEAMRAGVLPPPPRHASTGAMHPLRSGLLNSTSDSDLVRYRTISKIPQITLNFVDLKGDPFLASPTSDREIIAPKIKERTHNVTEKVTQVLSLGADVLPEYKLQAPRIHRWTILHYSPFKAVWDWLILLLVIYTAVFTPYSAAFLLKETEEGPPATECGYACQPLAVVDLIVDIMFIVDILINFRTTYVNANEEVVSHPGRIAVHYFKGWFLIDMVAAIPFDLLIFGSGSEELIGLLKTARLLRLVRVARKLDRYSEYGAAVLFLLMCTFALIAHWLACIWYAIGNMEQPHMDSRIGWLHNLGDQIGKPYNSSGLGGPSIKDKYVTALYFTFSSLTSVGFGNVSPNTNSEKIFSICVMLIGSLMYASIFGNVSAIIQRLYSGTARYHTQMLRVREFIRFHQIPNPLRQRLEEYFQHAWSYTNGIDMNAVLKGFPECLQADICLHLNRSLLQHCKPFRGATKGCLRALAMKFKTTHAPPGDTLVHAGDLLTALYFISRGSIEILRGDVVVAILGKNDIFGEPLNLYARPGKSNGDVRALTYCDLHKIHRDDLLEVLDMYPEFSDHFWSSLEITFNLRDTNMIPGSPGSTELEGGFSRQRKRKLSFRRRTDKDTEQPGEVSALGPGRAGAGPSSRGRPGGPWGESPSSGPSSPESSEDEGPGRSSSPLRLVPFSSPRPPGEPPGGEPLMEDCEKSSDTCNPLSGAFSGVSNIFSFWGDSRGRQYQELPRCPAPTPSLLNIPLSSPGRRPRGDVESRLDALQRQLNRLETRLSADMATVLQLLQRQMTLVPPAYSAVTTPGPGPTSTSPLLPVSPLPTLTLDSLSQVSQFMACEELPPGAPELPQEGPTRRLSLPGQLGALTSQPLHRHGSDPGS

efflux ratio at 2 h, 5 µM [3]: 21
bioavailability [4]: 33%
Tmax [5]: 0.7 h
half-life [10]: 2.4 h
Tmax [11]: 3.7 h
solubility kinetic at 5 h [13]: > 100 µM
EC50 [15]: 1.6 nM
solubility kinetic at 5 h [16]: 71 µM (≈ 57.6 µg/mL)
Vd [17]: 2.1 L/kg
IC50 [18]: 48 nM
clearance [20]: 6.67 mL/min/kg
bioavailability [21]: 24%
half-life [23]: 6.1 h
blood plasma ratio at 2 h, 10 µM [24]: 1.1
Papp A→B at 2 h, 5 µM [25]: 0.4 ×10⁻⁶ cm/s
blood plasma ratio at 2 h, 0.1 µM [26]: 4.2
IC50 [27]: 229 nM
Vd [28]: 2.9 L/kg
Vd [29]: 1.3 L/kg
half-life [30]: 4.6 h
Compound: CCn1c(-c2cc(N3CCN(C)CC3)cnc2[C@H](C)OC)c2c3cc(ccc31)-c1csc(n1)C[C@H](NC(=O)[C@H]1C[C@@H]1C)C(=O)N1CCC[C@H](N1)C(=O)OCC(C)(C)C2
inhibition (NCI-H441 [1]): Active
Activity (MIA PaCa-2 [2]): Active
IC50 [6]: > 30000 nM
Activity (NCI-H441 [7]): Active
EC50 (NCI-H1975 [8]): 1.4 nM
IC50 [9]: 8900 nM
EC50 (A-375): 7210 nM
Activity [12]: Non-toxic
Activity (MIA PaCa-2 [14]): Dose-dependent-effect
inhibition in vivo at 25 mg/kg [19]: 98%
EC50 (CAPAN-1): 1.3 nM
inhibition (NCI-H1975 [22]): Active
inhibition (PSN1): Active
Activity (NCI-H1373): Active
inhibition (Hs766T): Active
EC50 (ASPC1): 3.1 nM
Activity (HPAF-II): Active
Activity (Hs 766): Active

From ChEMBL document CHEMBL6115029, “Discovery of Daraxonrasib (RMC-6236), a Potent and Orally Bioavailable RAS(ON) Multi-selective, Noncovalent Tri-complex Inhibitor for the Treatment of Patients with Multiple RAS-Addicted Cancers” (J Med Chem, 2025)
